Test results as given in article PMC9983021, “Novel GluN2B-Selective NMDA Receptor Negative Allosteric Modulator Possesses Intrinsic Analgesic Properties and Enhances Analgesia of Morphine in a Rodent Tail Flick Pain Model” (ACS Chemical Neuroscience, 2023).

Experiments:
Test in all cases: Radioligand binding assay (NIMH PDSP)
[1] = target: T1, D1 (Homo sapiens, UniProt P21728); settings: primary screen, quadruplicate
T1 construct: purchased NIMH Psychoactive Drug Screening Program (PDSP)
Protocol: (§1) Conventional competition and saturation radioligand binding assays were used to determine the affinities of reference standards and EU93-108. Experiments were carried out by the NIMH Psychoactive Drug Screening Program (PDSP) and were performed as previously described.[123]
(§2) The detailed experimental protocols for the radioligand assays are available on the NIMH PDSP website at https://pdsp.unc.edu/pdspweb/content/UNC-CH%20Protocol%20Book.pdf.
(§3) Receptor Mean % Receptor Mean % Receptor Mean %
(§4) Inhibition Inhibition Inhibition
(§5) Supplemental Table S4. Off-Target Actions of EU93-108: Primary GPCR Screen. Cloned human molecular targets were individually expressed and submitted to molecular target-based screening with initial screens performed at a final concentration of 10 µM in quadruplicate. Complete protocols for the assays have been previously published (Besnard J et al. 2012). Where inhibition greater than 50% was measured, secondary screens were performed wherein Ki values were calculated (see Table 4).

[2] = target: T2, M5 (Homo sapiens, UniProt P08912); settings: primary screen, quadruplicate
T2 construct: purchased NIMH Psychoactive Drug Screening Program (PDSP)
Protocol: as §1, §2, §3, §4, §5

[3] = target: T3, 5-HT5A (Homo sapiens, UniProt P47898); settings: primary screen, quadruplicate
T3 construct: purchased NIMH Psychoactive Drug Screening Program (PDSP)
Protocol: as §1, §2, §3, §4, §5

[4] = target: T4, Beta1 (Homo sapiens, UniProt P08588); settings: primary screen, quadruplicate
T4 construct: purchased NIMH Psychoactive Drug Screening Program (PDSP)
Protocol: as §1, §2, §3, §4, §5

[5] = target: T5, M2 (Homo sapiens, UniProt P08172); settings: primary screen, quadruplicate
T5 construct: purchased NIMH Psychoactive Drug Screening Program (PDSP)
T5 sequence (P08172 whole entry): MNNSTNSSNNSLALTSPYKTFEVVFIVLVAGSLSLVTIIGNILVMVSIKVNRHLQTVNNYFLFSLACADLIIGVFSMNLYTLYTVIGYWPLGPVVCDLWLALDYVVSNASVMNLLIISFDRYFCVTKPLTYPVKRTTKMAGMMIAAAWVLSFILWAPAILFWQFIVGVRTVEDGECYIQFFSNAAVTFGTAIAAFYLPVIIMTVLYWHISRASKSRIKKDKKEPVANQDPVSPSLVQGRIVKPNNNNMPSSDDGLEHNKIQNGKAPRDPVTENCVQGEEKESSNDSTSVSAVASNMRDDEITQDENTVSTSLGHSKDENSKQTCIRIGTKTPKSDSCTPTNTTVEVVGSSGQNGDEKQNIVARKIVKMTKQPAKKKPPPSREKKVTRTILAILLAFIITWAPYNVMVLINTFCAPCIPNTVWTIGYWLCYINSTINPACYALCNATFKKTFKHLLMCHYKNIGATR
Protocol: as §1, §2, §3, §4, §5

[6] = target: T6, D2 (Homo sapiens, UniProt P14416); settings: primary screen, quadruplicate
T6 construct: purchased NIMH Psychoactive Drug Screening Program (PDSP)
Protocol: as §1, §2, §3, §4, §5

[7] = target: T7, H3 (Homo sapiens, UniProt Q9Y5N1); settings: primary screen, quadruplicate
T7 construct: purchased NIMH Psychoactive Drug Screening Program (PDSP)
T7 sequence (Q9Y5N1 whole entry): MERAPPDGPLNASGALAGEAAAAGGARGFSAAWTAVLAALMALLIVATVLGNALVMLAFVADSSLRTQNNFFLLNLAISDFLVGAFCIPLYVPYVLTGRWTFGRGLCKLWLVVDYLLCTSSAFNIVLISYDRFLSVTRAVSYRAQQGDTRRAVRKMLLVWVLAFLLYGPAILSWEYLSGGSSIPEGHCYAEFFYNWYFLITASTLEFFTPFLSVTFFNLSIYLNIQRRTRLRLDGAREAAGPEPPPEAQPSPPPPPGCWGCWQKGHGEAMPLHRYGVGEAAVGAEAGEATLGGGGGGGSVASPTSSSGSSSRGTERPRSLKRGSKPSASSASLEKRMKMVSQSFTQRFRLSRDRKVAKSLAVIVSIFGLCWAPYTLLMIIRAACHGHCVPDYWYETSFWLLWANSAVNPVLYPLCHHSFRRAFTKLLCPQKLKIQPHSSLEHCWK
Protocol: as §1, §2, §3, §4, §5

[8] = target: T8, H4 (Homo sapiens, UniProt Q9H3N8); settings: primary screen, quadruplicate
T8 construct: purchased NIMH Psychoactive Drug Screening Program (PDSP)
T8 sequence (Q9H3N8 whole entry): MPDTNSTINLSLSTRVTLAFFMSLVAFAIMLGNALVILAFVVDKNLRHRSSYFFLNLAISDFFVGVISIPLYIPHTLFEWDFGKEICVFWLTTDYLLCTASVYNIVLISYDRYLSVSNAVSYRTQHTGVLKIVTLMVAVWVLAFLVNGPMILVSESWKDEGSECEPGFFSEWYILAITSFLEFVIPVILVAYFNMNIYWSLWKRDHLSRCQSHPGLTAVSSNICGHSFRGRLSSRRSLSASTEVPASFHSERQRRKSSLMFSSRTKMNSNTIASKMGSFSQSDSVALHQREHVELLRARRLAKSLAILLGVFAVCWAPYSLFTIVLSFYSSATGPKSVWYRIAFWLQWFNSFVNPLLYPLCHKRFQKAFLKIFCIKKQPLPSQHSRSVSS
Protocol: as §1, §2, §3, §4, §5

[9] = target: T9, Alpha1B (Homo sapiens, UniProt P35368); settings: primary screen, quadruplicate
T9 construct: purchased NIMH Psychoactive Drug Screening Program (PDSP)
T9 sequence (P35368 whole entry): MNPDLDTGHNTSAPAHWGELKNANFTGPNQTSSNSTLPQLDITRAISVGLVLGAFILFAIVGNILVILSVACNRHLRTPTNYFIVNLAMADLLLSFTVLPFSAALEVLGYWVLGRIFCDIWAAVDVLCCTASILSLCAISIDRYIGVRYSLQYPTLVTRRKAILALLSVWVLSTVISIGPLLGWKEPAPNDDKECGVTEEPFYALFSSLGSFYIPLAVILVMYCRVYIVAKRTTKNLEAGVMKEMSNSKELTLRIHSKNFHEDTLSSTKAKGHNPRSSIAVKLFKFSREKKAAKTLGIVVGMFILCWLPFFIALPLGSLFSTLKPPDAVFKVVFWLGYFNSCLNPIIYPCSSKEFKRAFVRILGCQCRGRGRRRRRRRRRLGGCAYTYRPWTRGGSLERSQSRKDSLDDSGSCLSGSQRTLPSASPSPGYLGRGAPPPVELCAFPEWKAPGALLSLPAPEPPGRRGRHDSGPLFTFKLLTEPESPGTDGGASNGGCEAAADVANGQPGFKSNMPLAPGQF
Protocol: as §1, §2, §3, §4, §5

[10] = target: T10, 5-HT1A (Homo sapiens, UniProt P08908); settings: primary screen, quadruplicate
T10 construct: purchased NIMH Psychoactive Drug Screening Program (PDSP)
T10 sequence (P08908 whole entry): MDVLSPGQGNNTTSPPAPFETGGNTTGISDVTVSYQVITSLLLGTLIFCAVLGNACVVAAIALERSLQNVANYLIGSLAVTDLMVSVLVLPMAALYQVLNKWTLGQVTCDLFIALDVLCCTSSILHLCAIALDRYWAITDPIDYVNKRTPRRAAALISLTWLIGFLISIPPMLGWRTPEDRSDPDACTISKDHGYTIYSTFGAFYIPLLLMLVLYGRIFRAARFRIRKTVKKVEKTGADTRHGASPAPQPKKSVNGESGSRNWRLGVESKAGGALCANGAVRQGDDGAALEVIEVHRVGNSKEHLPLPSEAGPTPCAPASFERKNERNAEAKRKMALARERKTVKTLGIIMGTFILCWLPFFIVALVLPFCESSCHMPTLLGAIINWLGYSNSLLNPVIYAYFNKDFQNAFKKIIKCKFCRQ
Protocol: as §1, §2, §3, §4, §5

[11] = target: T11, KOR (Homo sapiens, UniProt P41145); settings: primary screen, quadruplicate
T11 construct: purchased NIMH Psychoactive Drug Screening Program (PDSP)
Protocol: as §1, §2, §3, §4, §5

[12] = target: T12, NET (Homo sapiens, UniProt P23975); settings: primary screen, quadruplicate
T12 construct: purchased NIMH Psychoactive Drug Screening Program (PDSP)
Protocol: as §1, §2, §3, §4, §5

[13] = target: T13, D5 (Homo sapiens, UniProt P21918); settings: primary screen, quadruplicate
T13 construct: purchased NIMH Psychoactive Drug Screening Program (PDSP)
Protocol: as §1, §2, §3, §4, §5

[14] = target: T14, 5-HT1B (Homo sapiens, UniProt P28222); settings: primary screen, quadruplicate
T14 construct: purchased NIMH Psychoactive Drug Screening Program (PDSP)
T14 sequence (P28222 whole entry): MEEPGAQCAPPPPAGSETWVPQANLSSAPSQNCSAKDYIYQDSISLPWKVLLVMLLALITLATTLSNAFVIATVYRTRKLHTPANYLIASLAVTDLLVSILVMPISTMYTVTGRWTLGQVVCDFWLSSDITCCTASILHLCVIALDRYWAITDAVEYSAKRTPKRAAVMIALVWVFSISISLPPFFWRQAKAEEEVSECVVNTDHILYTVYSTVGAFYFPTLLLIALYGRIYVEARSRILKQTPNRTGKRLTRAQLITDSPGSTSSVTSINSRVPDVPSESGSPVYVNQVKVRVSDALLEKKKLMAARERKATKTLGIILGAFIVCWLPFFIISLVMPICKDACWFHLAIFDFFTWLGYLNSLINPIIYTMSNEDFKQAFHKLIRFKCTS
Protocol: as §1, §2, §3, §4, §5

[15] = target: T15, DAT (Homo sapiens, UniProt Q01959); settings: primary screen, quadruplicate
T15 construct: purchased NIMH Psychoactive Drug Screening Program (PDSP)
Protocol: as §1, §2, §3, §4, §5

[16] = target: T16, M3 (Homo sapiens, UniProt P20309); settings: primary screen, quadruplicate
T16 construct: purchased NIMH Psychoactive Drug Screening Program (PDSP)
T16 sequence (P20309 whole entry): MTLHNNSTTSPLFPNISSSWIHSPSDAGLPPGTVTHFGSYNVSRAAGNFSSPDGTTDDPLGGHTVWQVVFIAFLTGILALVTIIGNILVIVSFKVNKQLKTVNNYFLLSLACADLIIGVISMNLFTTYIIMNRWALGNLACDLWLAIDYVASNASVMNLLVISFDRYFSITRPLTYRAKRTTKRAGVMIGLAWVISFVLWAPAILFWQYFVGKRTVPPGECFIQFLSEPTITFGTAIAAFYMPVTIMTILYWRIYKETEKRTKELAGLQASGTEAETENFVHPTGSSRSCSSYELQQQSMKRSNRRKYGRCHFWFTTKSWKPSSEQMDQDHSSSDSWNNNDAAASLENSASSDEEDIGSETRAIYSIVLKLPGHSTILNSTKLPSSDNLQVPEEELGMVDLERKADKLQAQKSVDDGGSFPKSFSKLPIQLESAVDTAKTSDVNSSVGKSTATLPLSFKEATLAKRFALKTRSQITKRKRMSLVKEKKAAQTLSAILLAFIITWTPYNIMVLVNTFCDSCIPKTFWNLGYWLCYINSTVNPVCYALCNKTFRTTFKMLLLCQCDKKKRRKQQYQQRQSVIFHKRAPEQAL
Protocol: as §1, §2, §3, §4, §5

[17] = target: T17, M4 (Homo sapiens, UniProt P08173); settings: primary screen, quadruplicate
T17 construct: purchased NIMH Psychoactive Drug Screening Program (PDSP)
Protocol: as §1, §2, §3, §4, §5

[18] = target: T18, Sigma2 (Homo sapiens, UniProt Q5BJF2); settings: primary screen, quadruplicate
T18 construct: purchased NIMH Psychoactive Drug Screening Program (PDSP)
Protocol: as §1, §2, §3, §4, §5

[19] = target: T19, H2 (Homo sapiens, UniProt P25021); settings: primary screen, quadruplicate
T19 construct: purchased NIMH Psychoactive Drug Screening Program (PDSP)
Protocol: as §1, §2, §3, §4, §5

[20] = target: T20, MOR (Homo sapiens, UniProt P35372); settings: primary screen, quadruplicate
T20 construct: purchased NIMH Psychoactive Drug Screening Program (PDSP)
Protocol: as §1, §2, §3, §4, §5

[21] = target: T21, M1 (Homo sapiens, UniProt P11229); settings: primary screen, quadruplicate
T21 construct: purchased NIMH Psychoactive Drug Screening Program (PDSP)
Protocol: as §1, §2, §3, §4, §5

[22] = target: T22, 5-HT1E (Homo sapiens, UniProt P28566); settings: primary screen, quadruplicate
T22 construct: purchased NIMH Psychoactive Drug Screening Program (PDSP)
Protocol: as §1, §2, §3, §4, §5

[23] = target: T23, D4 (Homo sapiens, UniProt P21917); settings: primary screen, quadruplicate
T23 construct: purchased NIMH Psychoactive Drug Screening Program (PDSP)
Protocol: as §1, §2, §3, §4, §5

[24] = target: T24, 5-HT7A (Homo sapiens, UniProt P34969); settings: primary screen, quadruplicate
T24 construct: purchased NIMH Psychoactive Drug Screening Program (PDSP)
Protocol: as §1, §2, §3, §4, §5

[25] = target: T25, 5-HT6 (Homo sapiens, UniProt P50406); settings: primary screen, quadruplicate
T25 construct: purchased NIMH Psychoactive Drug Screening Program (PDSP)
T25 sequence (P50406 whole entry): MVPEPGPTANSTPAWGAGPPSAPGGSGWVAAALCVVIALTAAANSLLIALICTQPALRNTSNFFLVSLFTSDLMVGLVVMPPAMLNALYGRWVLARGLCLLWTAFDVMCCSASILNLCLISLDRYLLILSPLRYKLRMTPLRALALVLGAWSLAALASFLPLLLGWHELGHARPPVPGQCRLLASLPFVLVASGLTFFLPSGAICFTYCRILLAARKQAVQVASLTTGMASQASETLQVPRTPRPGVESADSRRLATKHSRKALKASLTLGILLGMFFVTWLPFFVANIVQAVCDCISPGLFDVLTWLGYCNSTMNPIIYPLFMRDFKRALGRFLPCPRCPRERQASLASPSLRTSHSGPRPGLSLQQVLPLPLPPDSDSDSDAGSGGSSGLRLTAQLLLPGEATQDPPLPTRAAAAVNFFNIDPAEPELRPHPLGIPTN
Protocol: as §1, §2, §3, §4, §5

[26] = target: T26, Beta2 (Homo sapiens, UniProt P07550); settings: primary screen, quadruplicate
T26 construct: purchased NIMH Psychoactive Drug Screening Program (PDSP)
Protocol: as §1, §2, §3, §4, §5

[27] = target: T27, Beta3 (Homo sapiens, UniProt P13945); settings: primary screen, quadruplicate
T27 construct: purchased NIMH Psychoactive Drug Screening Program (PDSP)
T27 sequence (P13945 whole entry): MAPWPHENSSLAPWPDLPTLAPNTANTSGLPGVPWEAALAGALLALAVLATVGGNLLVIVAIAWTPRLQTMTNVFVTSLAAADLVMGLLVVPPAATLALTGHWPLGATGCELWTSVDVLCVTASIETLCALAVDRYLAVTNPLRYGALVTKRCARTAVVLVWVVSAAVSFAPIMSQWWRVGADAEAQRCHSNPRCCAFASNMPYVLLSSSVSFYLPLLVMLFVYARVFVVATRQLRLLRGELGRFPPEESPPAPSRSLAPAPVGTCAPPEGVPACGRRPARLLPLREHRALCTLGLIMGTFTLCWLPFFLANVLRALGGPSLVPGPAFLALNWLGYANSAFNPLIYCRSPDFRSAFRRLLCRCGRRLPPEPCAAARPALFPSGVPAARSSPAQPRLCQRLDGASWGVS
Protocol: as §1, §2, §3, §4, §5

[28] = target: T28, 5-HT3 (Homo sapiens, UniProt P46098); settings: primary screen, quadruplicate
T28 construct: purchased NIMH Psychoactive Drug Screening Program (PDSP)
T28 sequence (P46098 24-478): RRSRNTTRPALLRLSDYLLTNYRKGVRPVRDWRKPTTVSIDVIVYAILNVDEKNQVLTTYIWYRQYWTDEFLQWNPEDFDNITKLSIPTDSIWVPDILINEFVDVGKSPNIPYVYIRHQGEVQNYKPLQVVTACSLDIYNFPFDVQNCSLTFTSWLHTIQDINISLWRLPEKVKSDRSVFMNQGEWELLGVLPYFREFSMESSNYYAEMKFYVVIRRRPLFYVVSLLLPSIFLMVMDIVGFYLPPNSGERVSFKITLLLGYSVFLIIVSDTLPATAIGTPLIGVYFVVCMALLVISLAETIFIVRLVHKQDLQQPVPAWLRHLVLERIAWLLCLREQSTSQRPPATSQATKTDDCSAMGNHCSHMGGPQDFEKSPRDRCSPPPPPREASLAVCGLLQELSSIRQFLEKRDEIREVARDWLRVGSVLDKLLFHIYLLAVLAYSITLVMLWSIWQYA
Protocol: as §1, §2, §3, §4, §5

[29] = target: T29, SERT (Homo sapiens, UniProt P31645); settings: primary screen, quadruplicate
T29 construct: purchased NIMH Psychoactive Drug Screening Program (PDSP)
Protocol: as §1, §2, §3, §4, §5

[30] = target: T30, 5-HT1D (Homo sapiens, UniProt P28221); settings: primary screen, quadruplicate
T30 construct: purchased NIMH Psychoactive Drug Screening Program (PDSP)
T30 sequence (P28221 whole entry): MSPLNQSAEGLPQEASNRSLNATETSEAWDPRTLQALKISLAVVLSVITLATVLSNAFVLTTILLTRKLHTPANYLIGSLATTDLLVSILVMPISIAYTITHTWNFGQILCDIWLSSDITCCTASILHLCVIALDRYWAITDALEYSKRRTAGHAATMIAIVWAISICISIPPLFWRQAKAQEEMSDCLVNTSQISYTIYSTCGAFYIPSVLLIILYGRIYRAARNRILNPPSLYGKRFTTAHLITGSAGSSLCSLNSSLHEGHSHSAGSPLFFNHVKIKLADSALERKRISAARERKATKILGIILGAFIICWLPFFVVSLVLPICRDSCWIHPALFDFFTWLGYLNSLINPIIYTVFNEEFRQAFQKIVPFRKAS
Protocol: as §1, §2, §3, §4, §5

[31] = target: T31, Alpha2B (α2B) (Homo sapiens, UniProt P18089)
T31 sequence (P18089 1-450): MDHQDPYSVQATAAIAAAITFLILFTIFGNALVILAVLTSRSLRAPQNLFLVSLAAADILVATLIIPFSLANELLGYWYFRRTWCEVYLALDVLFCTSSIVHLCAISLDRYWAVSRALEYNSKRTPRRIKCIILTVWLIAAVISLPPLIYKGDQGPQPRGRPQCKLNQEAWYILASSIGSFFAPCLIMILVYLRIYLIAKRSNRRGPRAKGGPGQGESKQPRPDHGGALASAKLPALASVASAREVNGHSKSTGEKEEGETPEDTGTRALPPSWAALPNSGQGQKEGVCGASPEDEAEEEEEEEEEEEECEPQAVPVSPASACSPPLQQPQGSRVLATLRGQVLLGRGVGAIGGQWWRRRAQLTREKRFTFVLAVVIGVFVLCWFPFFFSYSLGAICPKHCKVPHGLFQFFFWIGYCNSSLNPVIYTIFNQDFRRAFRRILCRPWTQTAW
Protocol: Compound EU93-108 was also tested for inhibition of binding of probes to a range of GPCRs and other targets (Table 4 and Supporting Table S4). […] EU93-108 produced significant displacement of binding probes for the 5-HT2 receptors and α-1-adrenergic receptors, as well as D3, H1, and σ1 receptors. Concentration–response binding competition curves for these targets were used to determine Ki values (Table 4). Given that the brain concentration of EU93-108 achieved 30 min post i.p. injection is 18 μM (Figure 6), the doses that yield our desired antinociceptive effects may engage some of the receptors listed in Table 4.
as §1, §2, §3, §4, §5

With `CS(=O)(=O)Nc1ccc(OC[C@@H](O)CN2CCN(c3ccc(F)c(F)c3)CC2)cc1` [EU93-108, (S)-N-(4-(3-(4-(3,4-Difluorophenyl)piperazin-1-yl)-2-hydroxypropoxy)phenyl)methanesulfonamide] the inhibition at 10 µM [1] was 24.7%, the inhibition at 10 µM [2] was -0.11% and the inhibition at 10 µM [3] was 13%. It also gave an inhibition at 10 µM [4] of 29.1%, an inhibition at 10 µM [5] of -23.1% and an inhibition at 10 µM [6] of 23.1%. For the same molecule, the inhibition at 10 µM [7] was 22.7%, the inhibition at 10 µM [8] was 2.12% and the inhibition at 10 µM [9] was 5.09%. It also gave an inhibition at 10 µM [10] of 22.8%, an inhibition at 10 µM [11] of -3.1% and an inhibition at 10 µM [12] of 12.5%. It also gave an inhibition at 10 µM [13] of 8.94%, an inhibition at 10 µM [14] of -7.29% and an inhibition at 10 µM [15] of -7.01%. For the same molecule, the inhibition at 10 µM [16] was 9.26%, the inhibition at 10 µM [17] was 51.4% and the inhibition at 10 µM [18] was 47.2%. It also gave an inhibition at 10 µM [19] of 13.7%, an inhibition at 10 µM [20] of 4.04% and an inhibition at 10 µM [21] of -18.1%. It also gave an inhibition at 10 µM [22] of 1.68%, an inhibition at 10 µM [23] of 11.4% and an inhibition at 10 µM [24] of 55.9%. For the same molecule, the inhibition at 10 µM [25] was 25.3%, the inhibition at 10 µM [26] was 13.7% and the inhibition at 10 µM [27] was -10.5%. It also gave an inhibition at 10 µM [28] of 0.87%, an inhibition at 10 µM [29] of 15.1% and an inhibition at 10 µM [30] of 39.2%. For the same molecule, the inhibition at 10 µM ([31]; primary screen, 10 µM, quadruplicate) was 68%, the “Ki/IC50 of EU93-108” value ([31]; ratio of Ki to the IC50 for EU93-108 (555 nM) at GluN2B) was 1.31 and the Ki ([31]; secondary screen, binding competition curve) was 728 nM.
